# From PubChem BioAssay (NCI)
#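 The compound was tested at five concentrations on cells cultured in 96-well plates, with a 48-hour exposure period. GI50 marks 50% less growth. TGI: total growth inhibition.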
# What was measured:
# Assay in all cases: DTP human tumour cell line panel, 48 h
# SK-MEL-28 melanoma = test system: SK-MEL-28 melanoma
# SW-620 colon = test system: SW-620 colon
# HCT-116 colon = test system: HCT-116 colon
# HCT-15 colon = test system: HCT-15 colon
# KM12 colon = test system: KM12 colon
# HS 578T breast = test system: HS 578T breast
# PC-3 prostate = test system: PC-3 prostate
# LOX IMVI melanoma = test system: LOX IMVI melanoma
# K-562 leukemia = test system: K-562 leukemia
# NCI-H460 lung = test system: NCI-H460 lung
# NCI/ADR-RES ovarian = test system: NCI/ADR-RES ovarian
# U251 CNS = test system: U251 CNS
# HCC-2998 colon = test system: HCC-2998 colon
# A549 NSCLC = test system: A549 NSCLC
# CAKI-1 renal = test system: CAKI-1 renal
# OVCAR-5 ovarian = test system: OVCAR-5 ovarian
# COLO 205 colon = test system: COLO 205 colon
# NCI-H23 lung = test system: NCI-H23 lung
# HOP-92 NSCLC = test system: HOP-92 NSCLC
# UO-31 renal = test system: UO-31 renal
# MALME-3M melanoma = test system: MALME-3M melanoma
# IGROV1 ovarian = test system: IGROV1 ovarian
# SK-MEL-5 melanoma = test system: SK-MEL-5 melanoma
# HT29 colon = test system: HT29 colon
# NCI-H226 lung = test system: NCI-H226 lung
# TK-10 renal = test system: TK-10 renal
# HL-60(TB) leukemia = test system: HL-60(TB) leukemia
# NCI-H522 lung = test system: NCI-H522 lung
# SF-539 CNS = test system: SF-539 CNS
smiles,measurement,setting,value
C#CCn1cnc2cnc(Nc3cccc(NC(=O)CCl)c3)nc21,GI50,SK-MEL-28 melanoma,25.3 µM
same,TGI,SK-MEL-28 melanoma,> 62.5 µM
same,GI50,SW-620 colon,19.1 µM
same,TGI,SW-620 colon,> 62.5 µM
same,GI50,HCT-116 colon,21.3 µM
same,TGI,HCT-116 colon,> 62.5 µM
same,GI50,HCT-15 colon,29.3 µM
same,TGI,HCT-15 colon,> 62.5 µM
same,GI50,KM12 colon,21.1 µM
same,TGI,KM12 colon,> 62.5 µM
same,GI50,HS 578T breast,17.3 µM
same,TGI,HS 578T breast,> 62.5 µM
same,GI50,PC-3 prostate,27.7 µM
same,TGI,PC-3 prostate,> 62.5 µM
same,GI50,LOX IMVI melanoma,16.3 µM
same,TGI,LOX IMVI melanoma,> 62.5 µM
same,GI50,K-562 leukemia,23.7 µM
same,TGI,K-562 leukemia,> 62.5 µM
same,GI50,NCI-H460 lung,22.7 µM
same,TGI,NCI-H460 lung,> 62.5 µM
same,GI50,NCI/ADR-RES ovarian,26.4 µM
same,TGI,NCI/ADR-RES ovarian,> 62.5 µM
same,GI50,U251 CNS,19.6 µM
same,TGI,U251 CNS,> 62.5 µM
same,GI50,HCC-2998 colon,46.8 µM
same,TGI,HCC-2998 colon,> 62.5 µM
same,GI50,A549 NSCLC,20 µM
same,TGI,A549 NSCLC,> 62.5 µM
same,GI50,CAKI-1 renal,22.9 µM
same,TGI,CAKI-1 renal,> 62.5 µM
same,GI50,OVCAR-5 ovarian,29.8 µM
same,TGI,OVCAR-5 ovarian,> 62.5 µM
same,GI50,COLO 205 colon,15.2 µM
same,TGI,COLO 205 colon,45 µM
same,GI50,NCI-H23 lung,38.8 µM
same,TGI,NCI-H23 lung,> 62.5 µM
same,GI50,HOP-92 NSCLC,> 62.5 µM
same,TGI,HOP-92 NSCLC,> 62.5 µM
same,GI50,UO-31 renal,10.9 µM
same,TGI,UO-31 renal,55.3 µM
same,GI50,MALME-3M melanoma,23.2 µM
same,TGI,MALME-3M melanoma,> 62.5 µM
same,GI50,IGROV1 ovarian,6.99 µM
same,TGI,IGROV1 ovarian,22.3 µM
same,GI50,SK-MEL-5 melanoma,10.3 µM
same,TGI,SK-MEL-5 melanoma,19.5 µM
same,GI50,HT29 colon,17.3 µM
same,TGI,HT29 colon,> 62.5 µM
same,GI50,NCI-H226 lung,49.9 µM
same,TGI,NCI-H226 lung,> 62.5 µM
same,GI50,TK-10 renal,22.9 µM
same,TGI,TK-10 renal,> 62.5 µM
same,GI50,HL-60(TB) leukemia,15.7 µM
same,TGI,HL-60(TB) leukemia,41.3 µM
same,GI50,NCI-H522 lung,10.3 µM
same,TGI,NCI-H522 lung,22.4 µM
same,GI50,SF-539 CNS,16.9 µM
